According to the kinase profiling compilation of Christmann-Franck et al. (2016):
Values belong to the compound of their own block, whether it stands above or below them.

Legend:
Test in all cases: KINOMEscan competition binding
Conditions in all cases: compound 10.0 µM
[1] = tested on: ABL1 (human), P00519 [F317L]
DAPK3 (human) = DAPK3 (human) (UniProt O43293)
[2] = tested on: EGFR (human), P00533 [747-751 del / S ins]
[3] = tested on: EGFR (human), P00533 [A750P; 747-749 del]
[4] = tested on: EGFR (human), P00533 [G719C; 746-750 del]
[5] = tested on: EGFR (human), P00533 [P753S; 747-752 del]
FRK (human) = FRK (human) (UniProt P42685)
Chain of FRK (human) (P42685 whole entry, looked up): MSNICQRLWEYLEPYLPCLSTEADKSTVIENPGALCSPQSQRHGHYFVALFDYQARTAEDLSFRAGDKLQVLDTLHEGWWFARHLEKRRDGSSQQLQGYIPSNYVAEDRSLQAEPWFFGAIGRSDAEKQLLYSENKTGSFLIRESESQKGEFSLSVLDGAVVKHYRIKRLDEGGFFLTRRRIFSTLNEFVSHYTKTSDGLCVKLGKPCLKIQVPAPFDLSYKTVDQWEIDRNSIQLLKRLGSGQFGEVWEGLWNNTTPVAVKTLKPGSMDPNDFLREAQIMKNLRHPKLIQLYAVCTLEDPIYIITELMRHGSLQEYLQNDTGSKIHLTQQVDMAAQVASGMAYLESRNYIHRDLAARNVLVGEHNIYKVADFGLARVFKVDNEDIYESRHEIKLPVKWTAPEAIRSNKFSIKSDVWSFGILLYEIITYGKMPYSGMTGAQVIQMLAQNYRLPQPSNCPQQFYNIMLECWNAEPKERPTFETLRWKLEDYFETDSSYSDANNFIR

GAK (human) = GAK (human) (UniProt O14976)
Chain of GAK (human) (O14976 whole entry, looked up): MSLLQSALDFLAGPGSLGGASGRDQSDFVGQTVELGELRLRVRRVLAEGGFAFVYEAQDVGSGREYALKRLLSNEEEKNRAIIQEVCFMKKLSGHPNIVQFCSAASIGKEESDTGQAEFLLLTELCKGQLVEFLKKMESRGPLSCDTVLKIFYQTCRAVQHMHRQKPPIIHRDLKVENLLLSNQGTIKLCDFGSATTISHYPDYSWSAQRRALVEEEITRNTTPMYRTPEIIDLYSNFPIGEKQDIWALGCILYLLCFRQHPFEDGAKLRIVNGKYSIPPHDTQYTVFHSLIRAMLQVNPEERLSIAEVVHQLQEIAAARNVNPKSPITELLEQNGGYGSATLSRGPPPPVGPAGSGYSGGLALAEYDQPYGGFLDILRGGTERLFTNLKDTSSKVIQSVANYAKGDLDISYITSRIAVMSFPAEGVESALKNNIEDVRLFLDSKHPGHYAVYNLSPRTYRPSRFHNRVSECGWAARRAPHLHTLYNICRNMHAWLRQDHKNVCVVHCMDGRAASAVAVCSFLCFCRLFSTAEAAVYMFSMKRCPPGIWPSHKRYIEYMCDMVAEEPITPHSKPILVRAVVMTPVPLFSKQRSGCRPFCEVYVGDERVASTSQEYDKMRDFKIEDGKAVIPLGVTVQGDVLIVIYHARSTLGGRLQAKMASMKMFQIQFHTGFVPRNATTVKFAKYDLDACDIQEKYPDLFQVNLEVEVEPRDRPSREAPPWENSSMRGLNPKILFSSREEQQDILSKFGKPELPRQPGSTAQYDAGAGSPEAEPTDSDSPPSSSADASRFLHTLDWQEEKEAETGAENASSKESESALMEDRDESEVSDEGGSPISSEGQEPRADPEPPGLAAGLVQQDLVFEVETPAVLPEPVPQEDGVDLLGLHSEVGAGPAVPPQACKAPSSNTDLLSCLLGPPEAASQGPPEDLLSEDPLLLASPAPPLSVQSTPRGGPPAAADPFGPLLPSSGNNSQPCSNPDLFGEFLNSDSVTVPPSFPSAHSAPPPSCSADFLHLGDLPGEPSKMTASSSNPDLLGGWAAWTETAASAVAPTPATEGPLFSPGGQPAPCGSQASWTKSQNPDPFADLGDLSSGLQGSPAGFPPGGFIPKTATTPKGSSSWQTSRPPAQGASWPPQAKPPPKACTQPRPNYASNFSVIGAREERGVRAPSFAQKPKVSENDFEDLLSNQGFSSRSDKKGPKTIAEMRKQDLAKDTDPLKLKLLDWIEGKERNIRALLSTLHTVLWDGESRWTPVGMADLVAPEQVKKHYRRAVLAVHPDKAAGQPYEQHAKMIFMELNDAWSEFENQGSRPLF

PLK1 (human) = PLK1 (human) (UniProt P53350)
PLK3 (human) = PLK3 (human) (UniProt Q9H4B4)
PTK2 (human) = PTK2 (human) (UniProt Q05397)
PTK2B (human) = PTK2B (human) (UniProt Q14289)
RPS6KA6 KD2 (human) = RPS6KA6 KD2 (human) (UniProt Q9UK32)
SIK1 (human) = SIK1 (human) (UniProt P57059)
SLK (human) = SLK (human) (UniProt Q9H2G2)
STK10 (human) = STK10 (human) (UniProt O94804)
Chain of STK10 (human) (O94804 whole entry, looked up): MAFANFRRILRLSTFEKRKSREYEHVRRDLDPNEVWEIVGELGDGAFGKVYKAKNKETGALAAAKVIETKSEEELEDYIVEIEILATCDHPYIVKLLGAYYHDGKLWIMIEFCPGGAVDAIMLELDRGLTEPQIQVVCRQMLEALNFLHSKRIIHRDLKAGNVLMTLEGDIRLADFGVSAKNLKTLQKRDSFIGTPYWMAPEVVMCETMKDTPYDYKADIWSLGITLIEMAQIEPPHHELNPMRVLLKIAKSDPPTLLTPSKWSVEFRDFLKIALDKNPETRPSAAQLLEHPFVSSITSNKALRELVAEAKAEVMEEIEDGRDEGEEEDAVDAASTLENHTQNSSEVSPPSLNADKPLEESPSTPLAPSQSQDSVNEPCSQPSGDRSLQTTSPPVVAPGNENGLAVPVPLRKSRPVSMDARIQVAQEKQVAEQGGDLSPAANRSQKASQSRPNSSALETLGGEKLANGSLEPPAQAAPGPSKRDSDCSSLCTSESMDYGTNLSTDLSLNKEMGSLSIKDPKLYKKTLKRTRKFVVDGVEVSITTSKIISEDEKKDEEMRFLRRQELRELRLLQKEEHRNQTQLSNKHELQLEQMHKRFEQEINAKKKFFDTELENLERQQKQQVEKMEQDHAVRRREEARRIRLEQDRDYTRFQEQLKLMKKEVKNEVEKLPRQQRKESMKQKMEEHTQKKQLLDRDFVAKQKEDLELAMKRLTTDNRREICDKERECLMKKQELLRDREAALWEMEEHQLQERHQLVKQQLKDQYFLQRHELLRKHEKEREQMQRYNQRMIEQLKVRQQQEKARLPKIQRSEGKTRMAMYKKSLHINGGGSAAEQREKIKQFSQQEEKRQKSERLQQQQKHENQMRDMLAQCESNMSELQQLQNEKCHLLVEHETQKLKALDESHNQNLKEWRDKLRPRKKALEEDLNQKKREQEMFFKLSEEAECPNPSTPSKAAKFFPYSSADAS

TNK2 (human) = TNK2 (human) (UniProt Q07912)
Chain of TNK2 (human) (Q07912 whole entry, looked up): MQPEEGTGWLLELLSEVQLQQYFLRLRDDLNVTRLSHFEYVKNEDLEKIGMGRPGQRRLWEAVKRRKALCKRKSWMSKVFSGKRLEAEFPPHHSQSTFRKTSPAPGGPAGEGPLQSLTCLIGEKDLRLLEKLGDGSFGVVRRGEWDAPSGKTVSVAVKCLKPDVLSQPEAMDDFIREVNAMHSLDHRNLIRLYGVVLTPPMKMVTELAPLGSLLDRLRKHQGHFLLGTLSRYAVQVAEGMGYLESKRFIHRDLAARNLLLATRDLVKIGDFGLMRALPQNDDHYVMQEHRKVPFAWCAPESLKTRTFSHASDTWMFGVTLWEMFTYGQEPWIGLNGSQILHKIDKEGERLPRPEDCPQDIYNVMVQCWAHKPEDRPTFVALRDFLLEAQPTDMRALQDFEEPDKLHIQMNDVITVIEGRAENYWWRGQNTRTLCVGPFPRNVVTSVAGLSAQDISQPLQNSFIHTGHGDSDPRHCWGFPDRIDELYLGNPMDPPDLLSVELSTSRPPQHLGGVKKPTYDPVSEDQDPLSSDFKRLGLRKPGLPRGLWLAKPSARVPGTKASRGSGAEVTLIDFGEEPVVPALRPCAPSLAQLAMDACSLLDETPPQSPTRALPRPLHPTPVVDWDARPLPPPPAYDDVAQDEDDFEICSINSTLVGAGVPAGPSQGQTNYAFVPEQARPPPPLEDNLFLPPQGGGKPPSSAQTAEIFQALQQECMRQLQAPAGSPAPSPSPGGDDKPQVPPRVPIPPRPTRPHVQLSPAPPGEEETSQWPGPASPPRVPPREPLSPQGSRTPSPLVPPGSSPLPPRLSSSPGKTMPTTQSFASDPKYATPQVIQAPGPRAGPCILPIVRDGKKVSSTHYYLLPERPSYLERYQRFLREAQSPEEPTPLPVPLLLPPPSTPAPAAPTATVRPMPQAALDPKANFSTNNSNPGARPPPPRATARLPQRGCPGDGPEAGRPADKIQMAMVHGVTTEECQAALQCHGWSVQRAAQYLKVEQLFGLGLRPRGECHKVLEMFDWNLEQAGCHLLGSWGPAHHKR

TTK (human) = TTK (human) (UniProt P33981)
DDR1 (human) = DDR1 (human) (UniProt Q08345)
KIT (human) = KIT (human) (UniProt P10721)
[6] = tested on: KIT (human), P10721 [V559D]
PDGFRB (human) = PDGFRB (human) (UniProt P09619)
TIE1 (human) = TIE1 (human) (UniProt P35590)
[7] = tested on: ABL1 (human), P00519 [F317I]
Chain of ABL1 (human), P00519 [F317I] (P00519 whole entry F317I, looked up): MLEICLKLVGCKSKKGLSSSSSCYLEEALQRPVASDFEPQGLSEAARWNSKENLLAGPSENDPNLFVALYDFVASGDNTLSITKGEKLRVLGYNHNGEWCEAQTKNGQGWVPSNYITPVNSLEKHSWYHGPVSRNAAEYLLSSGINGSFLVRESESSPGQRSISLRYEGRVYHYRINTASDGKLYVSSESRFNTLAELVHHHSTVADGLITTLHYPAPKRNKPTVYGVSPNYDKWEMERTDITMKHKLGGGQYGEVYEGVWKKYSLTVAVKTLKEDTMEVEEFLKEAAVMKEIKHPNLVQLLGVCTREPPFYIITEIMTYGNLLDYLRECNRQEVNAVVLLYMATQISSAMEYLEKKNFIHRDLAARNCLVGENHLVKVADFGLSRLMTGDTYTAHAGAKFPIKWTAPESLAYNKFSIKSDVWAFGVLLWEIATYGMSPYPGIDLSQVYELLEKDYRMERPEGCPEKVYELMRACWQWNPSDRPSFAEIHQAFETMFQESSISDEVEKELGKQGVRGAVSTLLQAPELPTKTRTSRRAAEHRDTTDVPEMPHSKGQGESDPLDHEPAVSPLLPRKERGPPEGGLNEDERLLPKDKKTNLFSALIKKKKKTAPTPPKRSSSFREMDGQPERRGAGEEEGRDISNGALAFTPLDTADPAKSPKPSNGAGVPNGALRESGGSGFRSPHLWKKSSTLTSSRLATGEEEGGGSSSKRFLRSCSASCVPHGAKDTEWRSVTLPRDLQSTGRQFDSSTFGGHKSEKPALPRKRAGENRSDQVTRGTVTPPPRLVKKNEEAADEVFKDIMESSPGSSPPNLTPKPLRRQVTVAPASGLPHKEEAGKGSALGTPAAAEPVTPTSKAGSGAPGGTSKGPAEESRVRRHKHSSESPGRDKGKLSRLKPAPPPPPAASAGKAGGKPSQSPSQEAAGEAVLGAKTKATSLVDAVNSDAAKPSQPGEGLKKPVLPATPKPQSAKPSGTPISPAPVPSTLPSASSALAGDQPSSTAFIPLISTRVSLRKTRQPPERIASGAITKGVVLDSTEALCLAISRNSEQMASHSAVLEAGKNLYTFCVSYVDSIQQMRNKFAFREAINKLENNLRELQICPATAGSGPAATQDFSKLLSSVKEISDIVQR

ALK (human) = ALK (human) (UniProt Q9UM73)
CAMK2A (human) = CAMK2A (human) (UniProt Q9UQM7)
CAMK2B (human) = CAMK2B (human) (UniProt Q13554)
CAMK2D (human) = CAMK2D (human) (UniProt Q13557)
CAMK2G (human) = CAMK2G (human) (UniProt Q13555)
CLK1 (human) = CLK1 (human) (UniProt P49759)
CLK4 (human) = CLK4 (human) (UniProt Q9HAZ1)
DCLK1 (human) = DCLK1 (human) (UniProt O15075)
DCLK2 (human) = DCLK2 (human) (UniProt Q8N568)
DCLK3 (human) = DCLK3 (human) (UniProt Q9C098)
DYRK1B (human) = DYRK1B (human) (UniProt Q9Y463)
FLT3 (human) = FLT3 (human) (UniProt P36888)
[8] = tested on: FLT3 (human), P36888 [D835H]
[9] = tested on: FLT3 (human), P36888 [D835Y]
[10] = tested on: FLT3 (human), P36888 [ITD]
[11] = tested on: FLT3 (human), P36888 [K663Q]
[12] = tested on: FLT3 (human), P36888 [N841I]
MAPK7 (human) = MAPK7 (human) (UniProt Q13164)
MKNK2 (human) = MKNK2 (human) (UniProt Q9HBH9)
MYLK4 (human) = MYLK4 (human) (UniProt Q86YV6)
PHKG1 (human) = PHKG1 (human) (UniProt Q16816)
PTK6 (human) = PTK6 (human) (UniProt Q13882)
TNK1 (human) = TNK1 (human) (UniProt Q13470)
ULK2 (human) = ULK2 (human) (UniProt Q8IYT8)

Chain of ABL1 (human), P00519 [F317L] (P00519 whole entry F317L, looked up): as the sequence (P00519 whole entry F317I, looked up) above, with I317L counted along it

kinase still bound, per cent of control [1]: 29% | kinase still bound, per cent of control (DAPK3 (human)): 28% | kinase still bound, per cent of control [2]: 32% | kinase still bound, per cent of control [3]: 33% | kinase still bound, per cent of control [4]: 30% | kinase still bound, per cent of control [5]: 32% | kinase still bound, per cent of control (FRK (human)): 16% | kinase still bound, per cent of control (GAK (human)): 1.2% | kinase still bound, per cent of control (PLK1 (human)): 0% | kinase still bound, per cent of control (PLK3 (human)): 26% | kinase still bound, per cent of control (PTK2 (human)): 7.1% | kinase still bound, per cent of control (PTK2B (human)): 23% | kinase still bound, per cent of control (RPS6KA6 KD2 (human)): 12% | kinase still bound, per cent of control (SIK1 (human)): 27% | kinase still bound, per cent of control (SLK (human)): 7.2% | kinase still bound, per cent of control (STK10 (human)): 19% | kinase still bound, per cent of control (TNK2 (human)): 11% | kinase still bound, per cent of control (TTK (human)): 12%
Compound: COc1cc(N2CCC(N3CCN(C)CC3)CC2)ccc1Nc1ncc2c(n1)N(C1CCCC1)C(C)CC(=O)N2 (centres undefined)

kinase still bound, per cent of control (DDR1 (human)): 34% | kinase still bound, per cent of control (KIT (human)): 25% | kinase still bound, per cent of control [6]: 29% | kinase still bound, per cent of control (PDGFRB (human)): 33% | kinase still bound, per cent of control (STK10 (human)): 27% | kinase still bound, per cent of control (TIE1 (human)): 25%
Compound: NS(=O)(=O)c1ccc(-c2ccc(/C=C3/C(=O)NN(c4ccccc4)C3=O)o2)cc1

kinase still bound, per cent of control [7]: 15% | kinase still bound, per cent of control [1]: 25% | kinase still bound, per cent of control (ALK (human)): 30% | kinase still bound, per cent of control (CAMK2A (human)): 5.4% | kinase still bound, per cent of control (CAMK2B (human)): 21% | kinase still bound, per cent of control (CAMK2D (human)): 7.7% | kinase still bound, per cent of control (CAMK2G (human)): 25% | kinase still bound, per cent of control (CLK1 (human)): 27% | kinase still bound, per cent of control (CLK4 (human)): 20% | kinase still bound, per cent of control (DCLK1 (human)): 5.4% | kinase still bound, per cent of control (DCLK2 (human)): 17% | kinase still bound, per cent of control (DCLK3 (human)): 11% | kinase still bound, per cent of control (DYRK1B (human)): 12% | kinase still bound, per cent of control (FLT3 (human)): 13% | kinase still bound, per cent of control [8]: 18% | kinase still bound, per cent of control [9]: 2% | kinase still bound, per cent of control [10]: 6.5% | kinase still bound, per cent of control [11]: 13% | kinase still bound, per cent of control [12]: 0.35% | kinase still bound, per cent of control (FRK (human)): 26% | kinase still bound, per cent of control (GAK (human)): 2% | kinase still bound, per cent of control (MAPK7 (human)): 30% | kinase still bound, per cent of control (MKNK2 (human)): 0.8% | kinase still bound, per cent of control (MYLK4 (human)): 5.8% | kinase still bound, per cent of control (PHKG1 (human)): 9.2% | kinase still bound, per cent of control (PTK6 (human)): 13% | kinase still bound, per cent of control (TNK1 (human)): 10% | kinase still bound, per cent of control (TNK2 (human)): 8.4% | kinase still bound, per cent of control (TTK (human)): 1% | kinase still bound, per cent of control (ULK2 (human)): 27%
Compound: COc1cc(N2CCN(C)CC2)ccc1Nc1ncc2c(n1)N(C(C)C)c1ccccc1C(=O)N2
